Data set [1] deals with Enterococcus faecium (VRE). The data set is described as follows: microbe, parasite or virus in culture. It counts as cell-based. As for the experimental part:
(§1) In example experiments miconazole nitrate, econazole nitrate and clotrimazole were dissolved in DMSO. Colistin, D-cycloserine, fosfomycin and polymixin B were dissolved in water. Nisin was suspended at 10 mg/mL in 0.02 M HCl, and the supernatant fraction following centrifugation at 10,000 g for 10 mins was used in the following experiments.
(§2) Other solvents that may be used include caster oil, pyridine, and 0.9% saline. For IV administration agents may be solubilised in polyethoxylated caster oil, or cyclodextrins such as sulfobutylether7-βcyclodextrin or hydroxypropyl-β-cyclodextrin and lactic acid. Minimum inhibitory concentrations (MICs) of a range of clinical and control bacterial organisms were measured according to BSAC (British Society for Antimicrobial Chemotherapy) guidelines (Andrews 2001), for single agents. The method of determining MICs of imidazole with colistin, D-cycloserine, fosfomycin, polymixin B, or nisin is described briefly as follows. MICs were measured by agar dilution. Kill curves were performed in accordance with the methods of Garrison and Nuemiller, 2007. Briefly kill profiles were generated by logarithmically plotting mean CFU/mL data over time. Total logarithmic reductions in bacterial counts were determined by subtracting 24 h CFU/mL values from starting inocula.
(§3) Stock solutions were prepared at concentrations of 1000 mg/L and 100 mg/L. To determine the MIC of miconazole, the appropriate amount of each stock solution were added to separate Petri dishes give a range of final concentrations (after the addition of 20 mL molten agar): from 0.12 to 32 mg/L. To determine the MICs of miconazole with the specific agent active on a bacterial cell surface, these concentrations of miconazole were used in addition to a fixed sub-inhibitory amount of the agent active on a bacterial cell surface. […] Volumes (20 mL) of cooled molten IST agar (oxoid) was added to each Petri dish and mixed by swirling. After drying, the plates were stored at 4° C. and protected from light. Plates were used on the day of preparation.
(§4) The test organisms were grown overnight in 5 mL IST broth. Using a dilution in 0.9% saline of 1:100, the appropriate agar plates were inoculated using a multipoint inoculator.
(§5) Agar plates and microtitre plates were incubated at 37° C. in air for 18-20 hours.
(§6) The MIC is the minimum amount of an antibiotic at which there is no visible growth of bacteria. Tiny single colonies or faint hazes were not counted as growth. Synergy was reported if the inhibitory effect of the drugs in combination were greater than the sum of the inhibitory effects of each drug singly. The concentration of miconazole, with or without the cell membrane or cell wall active agent, capable of inhibiting the growth of 50% and 90% of the strains tested is reported as the MIC50 and MIC90 respectively. The range of MICs for each group of bacterial strains is also reported.

Data set [2] concerns VISA. Put plainly: microbe, parasite or virus in culture. It counts as cell-based. Conditions: Staphylococcus aureus. On the procedure:
as §1, §2, §3, §4, §5, §6

Data set [3] relates to Enterococcus faecalis (VRE). Put plainly: MIC by agar dilution, Enterococcus faecalis (VRE). It counts as cell-based. On the procedure:
as §2, §3
(§7) The test organisms were grown overnight in 5 mL IST broth. Using a dilution in 0.9% saline of 1:100, the appropriate agar plates were inoculated using a multipoint inoculator. […]
(§8) The MIC is the minimum amount of an antibiotic at which there is no visible growth of bacteria. Tiny single colonies or faint hazes were not counted as growth. […]
(In general: Agar dilution tests growth on a series of plates holding different concentrations.)

In data set [4] the test system is Escherichia coli. The data set is described as follows: MIC by agar dilution, Escherichia coli. It counts as cell-based. As for the experimental part:
as §2, §3, §7, §8

The test system of data set [5] is Pseudomonas aeruginosa. The data set is described as follows: MIC by agar dilution, Pseudomonas aeruginosa. In kind it is cell-based. On the procedure: as §2, §3, §7, §8
Data set [6] relates to Staphylococcus epidermidis. The data set is described as follows: MIC by agar dilution, Staphylococcus epidermidis. It counts as cell-based. As for the experimental part:
as §2, §3, §7, §8

In data set [7] the test system is MRSA AND VRE. The data set is described as follows: MIC by agar dilution, MIC50/MIC90/range over MRSA and VRE strain panel. It counts as cell-based, Staphylococcus aureus; Enterococci. As for the experimental part:
In example experiments miconazole nitrate, econazole nitrate and clotrimazole were dissolved in DMSO. Colistin, D-cycloserine, fosfomycin and polymixin B were dissolved in water.
as §2, with “The method of determining MICs of imidazole with colistin, D-cycloserine, fosfomycin, polymixin B, or nisin is described briefly as follows.” left out
as §3, §7
The MIC is the minimum amount of an antibiotic at which there is no visible growth of bacteria. Tiny single colonies or faint hazes were not counted as growth. […] The concentration of miconazole, with or without the cell membrane or cell wall active agent, capable of inhibiting the growth of 50% and 90% of the strains tested is reported as the MIC50 and MIC90 respectively. The range of MICs for each group of bacterial strains is also reported.

The conditions of data set [8]: in vivo, cited from earlier work.
[9] abbreviates: ATCC 4147 / VRE, Table 2, strain E15 VanA ATCC 4147, read-out: MIC.
The mark [10] stands for this setting: NCTC 7171 / VRE, Table 2, strain NCTC 7171, read-out: MIC.
The mark [11] stands for this setting: VRE, Table 2, strain E19 UAA/522 VanB, read-out: MIC.
[12] abbreviates: VRE, Table 2, strain VanR B145344C LFE, read-out: MIC.
Setting [13] is: Table 2, strain USA/VISA 5827, read-out: MIC.
[14] abbreviates: Table 2, strain USA/VISA 5836, read-out: MIC.
[15] abbreviates: Table 2, strain VISA 3900 UK, read-out: MIC.

Read-outs that look alike come from different tables or passages of the source.

For `OC(Cn1cncn1)(Cn1cncn1)c1ccc(F)cc1F` [Fluconazole], the MIC was over 128 µg/mL in data set [1] (ATCC 4147 / VRE, Table 2, strain E15 VanA ATCC 4147); over 128 µg/mL in data set [1] (NCTC 7171 / VRE, Table 2, strain NCTC 7171); over 128 µg/mL in data set [1] (VRE, Table 2, strain E19 UAA/522 VanB); over 128 µg/mL in data set [1] (VRE, Table 2, strain VanR B145344C LFE); over 128 µg/mL in data set [2] (Table 2, strain USA/VISA 5827); over 128 µg/mL in data set [2] (Table 2, strain USA/VISA 5836). Also, the MIC in data set [2] (Table 2, strain VISA 3900 UK) is over 128 µg/mL; in data set [3], over 128 µg/mL; in data set [4] (NCTC10418) it was over 128 µg/mL; in data set [5] (NCTC10662), over 128 µg/mL; in data set [6] (ATCC1228) it was over 128 µg/mL.

In the case of `N[C@@H]1CONC1=O` [D-cycloserine], in data set [7] (D-cycloserine alone at 10 mg/L), the “inhibitory effect on the growth of the bacterial strains tested” value (“inhibitory effect on the growth” for short) was “no inhibitory effect”.

`Clc1ccccc1C(c1ccccc1)(c1ccccc1)n1ccnc1` [Clotrimazole, 1-[(2-Chlorophenyl)diphenylmethyl]-1H-imidazole]: the half-life result in data set [8] (human, po) was “around 3 hours”. The “absorption following oral administration” value in data set [8] was “well absorbed”.

Take polymixin B: the “inhibitory effect on the growth” value in data set [7] (polymixin B alone at 20 mg/L) is given as “no inhibitory effect”.

As to `c1ccc(-c2ccc(C(c3ccccc3)n3ccnc3)cc2)cc1` (stereo not drawn) [Bifonazole], the MIC in data set [1] (setting [9]), in data set [1] (setting [10]), in data set [1] (setting [11]), in data set [1] (setting [12]), in data set [2] (setting [13]) and in data set [2] (setting [14]) was over 128 µg/mL in each case. Further, the MIC is over 128 µg/mL in data set [2] (setting [15]); over 128 µg/mL in data set [3] (Table 2, strain E8 VanA, read-out: MIC); over 128 µg/mL in data set [4] (NCTC10418, Table 2, strain NCTC 10418, read-out: MIC); over 128 µg/mL in data set [5] (NCTC10662, Table 2, strain NCTC 10662, read-out: MIC); over 128 µg/mL in data set [6] (ATCC1228, Table 2, strain ATCC 1228, read-out: MIC).

As for `C[C@@H]1O[C@@H]1P(=O)(O)O` [fosfomycin], the “inhibitory effect on the growth” value in data set [7] (fosfomycin alone at 5 mg/L) was “no inhibitory effect”.

In the case of `CC(=O)N1CCN(c2ccc(OCC3COC(Cn4ccnc4)(c4ccc(Cl)cc4Cl)O3)cc2)CC1` (stereo not drawn) [Ketoconazole], the MIC was 16 µg/mL in data set [1] (setting [9]); 128 µg/mL in data set [1] (setting [10]); 128 µg/mL in data set [1] (setting [11]); 128 µg/mL in data set [1] (setting [12]); 64 µg/mL in data set [2] (setting [13]); 64 µg/mL in data set [2] (setting [14]). Moreover, the MIC was 64 µg/mL in data set [2] (setting [15]); over 256 µg/mL in data set [3]; over 256 µg/mL in data set [4] (NCTC10418); over 256 µg/mL in data set [5] (NCTC10662); 64 µg/mL in data set [6] (ATCC1228).

Take colistin: the “inhibitory effect on the growth” value in data set [7] (colistin alone at 5 mg/L) was “no inhibitory effect”.

The values above are taken from patent US8614179B2, “Antibacterial combination therapy for the treatment of gram positive bacterial infections” (E-Therapeutics PLC, priority 2008, dated 2013).
